Data from patent publication US12611423B2, “Medical use of tafoxiparin” (DILAFOR AB, priority 2022, dated 2026).

Tests used:
[1] = system: factor IIa; assay: antifactor IIa activity of tafoxiparin; format: biochemical; conditions: definition of tafoxiparin
[2] = system: factor Xa; assay: antifactor Xa activity of tafoxiparin; format: biochemical; conditions: definition of tafoxiparin
Chain of factor Xa (P01008 33-464 partner): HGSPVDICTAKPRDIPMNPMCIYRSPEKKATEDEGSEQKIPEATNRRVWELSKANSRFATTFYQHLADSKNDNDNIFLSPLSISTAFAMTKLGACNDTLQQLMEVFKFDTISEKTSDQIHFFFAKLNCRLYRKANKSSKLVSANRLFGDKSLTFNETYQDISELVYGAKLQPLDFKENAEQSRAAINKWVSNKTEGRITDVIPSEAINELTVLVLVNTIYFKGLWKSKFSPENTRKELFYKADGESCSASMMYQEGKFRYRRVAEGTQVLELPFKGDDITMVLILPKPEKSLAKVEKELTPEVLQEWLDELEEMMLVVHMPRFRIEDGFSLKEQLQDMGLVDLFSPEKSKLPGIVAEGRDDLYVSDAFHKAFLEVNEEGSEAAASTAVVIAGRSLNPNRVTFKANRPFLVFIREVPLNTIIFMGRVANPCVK
Chain of factor Xa (P00742 235-488 limits assumed, further chain): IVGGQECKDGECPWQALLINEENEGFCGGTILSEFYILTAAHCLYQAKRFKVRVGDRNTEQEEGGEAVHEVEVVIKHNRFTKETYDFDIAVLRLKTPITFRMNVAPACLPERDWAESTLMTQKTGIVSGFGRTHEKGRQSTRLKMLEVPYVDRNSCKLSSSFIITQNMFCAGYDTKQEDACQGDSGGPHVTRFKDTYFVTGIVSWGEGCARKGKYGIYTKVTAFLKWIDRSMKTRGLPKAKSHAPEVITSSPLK

Chain of factor IIa (P01008 33-464): as the sequence (P01008 33-464 partner) above

tafoxiparin
antifactor Ila activity [1]: less than 10 IU/mg | antifactor Xa activity [2]: less than 10 IU/mg
